The results in this text go back to US8551914B2, “Pesticidal compositions” (Dow AgroSciences, LLC., priority 2011, dated 2013).

Broadly, the mortality is the percentage killed. A higher mortality goes with fewer survivors.

What all share (type): in vivo
One series has as its system CEW (Helicoverpa zea). The series can be described thus: Bioassay on corn earworm (CEW), 128-well diet tray assay. Particulars: 50 μg/cm2 on artificial diet, second instar larvae, five to seven days, 25° C.; for mortality at 50 µg/cm2: Helicoverpa zea, 168 h. The method, then: (§1) Certain molecules disclosed in this document were tested against BAW and CEW using procedures described in the following examples. In the reporting of the results, the “BAW & CEW Rating Table” was used (See Table Section).
Bioassays on CEW were conducted using a 128-well diet tray assay. one to five second instar CEW larvae were placed in each well (3 mL) of the diet tray that had been previously filled with 1 mL of artificial diet to which 50 μg/cm^2 of the test compound (dissolved in 50 μL of 90:10 acetone-water mixture) had been applied (to each of eight wells) and then allowed to dry. Trays were covered with a clear self-adhesive cover, and held at 25° C., 14:10 light-dark for five to seven days. Percent mortality was recorded for the larvae in each well; activity in the eight wells was then averaged. The results are indicated in the table entitled “Table 1” (See Table Section).

The next series relates to GPA (Myzus persicae). The series can be described thus: Bioassay on green peach aphid (GPA), foliar spray on cabbage seedlings. Particulars: 200 ppm spray on cabbage seedlings, three days, Abbott corrected % control; for mortality at 200 ppm: Myzus persicae, foliar, 72 h. The method, then: Certain molecules disclosed in this document were tested against GPA using procedures described in the following example. In the reporting of the results, the “GPA Rating Table” was used (See Table Section).
Cabbage seedlings grown in 3-inch pots, with 2-3 small (3-5 cm) true leaves, were used as test substrate. The seedlings were infested with 20-50 GPA (wingless adult and nymph stages) one day prior to chemical application. Four pots with individual seedlings were used for each treatment. Test compounds (2 mg) were dissolved in 2 mL of acetone/methanol (1:1) solvent, forming stock solutions of 1000 ppm test compound. The stock solutions were diluted 5× with 0.025% Tween 20 in H2O to obtain the solution at 200 ppm test compound. A hand-held aspirator-type sprayer was used for spraying a solution to both sides of […] leaves until runoff. Reference plants (solvent check) were sprayed with the diluent only containing 20% by volume of acetone/methanol (1:1) solvent. Treated plants were held in a holding room for three days at approximately 25° C. and ambient relative humidity (RH) prior to grading. Evaluation was conducted by counting the number of live aphids per plant under a microscope. Percent Control was measured by using Abbott's correction formula (W. S. Abbott, “A Method of Computing the Effectiveness of an Insecticide” J. Econ. Entomol. 18 (1925), pp. 265-26′7) as follows. Corrected % Control=100*(X−Y)/X • where • X=No. of live aphids on solvent check plants and • Y=No. of live aphids on treated plants

The next series relates to BAW (Spodoptera exigua). The series can be described thus: Bioassay on beet armyworm (BAW), 128-well diet tray assay. Particulars: 50 μg/cm2 on artificial diet, second instar larvae, five to seven days, 25° C.; for mortality at 50 µg/cm2: Spodoptera exigua, 168 h. The method, then:
as §1
Bioassays on BAW were conducted using a 128-well diet tray assay. one to five second instar BAW larvae were placed in each well (3 mL) of the diet tray that had been previously filled with 1 mL of artificial diet to which 50 μg/cm^2 of the test compound (dissolved in 50 μL of 90:10 acetone-water mixture) had been applied (to each of eight wells) and then allowed to dry. Trays were covered with a clear self-adhesive cover, and held at 25° C., 14:10 light-dark for five to seven days. Percent mortality was recorded for the larvae in each well; activity in the eight wells was then averaged. The results are indicated in the table entitled “Table 1” (See Table Section).

Counter-ions that a name gives are not always drawn.

Take `CO[C@@H]1[C@@H](OC)[C@H](C)O[C@@H](ONCc2ccc(-c3ncn(-c4ccc(OC(F)(F)F)cc4)n3)cc2)[C@@H]1OC` [Compound 3, N-{4-[1-(4-trifluoromethoxyphenyl)-1H-[1,2,4]triazol-3-yl]-benzyl}-O-((2S,3R,4R,5S,6S)-3,4,5-trimethoxy-6-methyl-tetrahydro-pyran-2-yl)-hydroxylamine]: the “% Mortality CEW 50 μg/cm2” value in the series on CEW (Helicoverpa zea) is “A (50-100)”. The mortality at 200 ppm in the series on GPA (Myzus persicae) fell in the range of 0 to 80%. The “% Mortality BAW 50 μg/cm2” value in the series with BAW (Spodoptera exigua) is listed as “A (50-100)”.
`CCO[C@@H]1[C@@H](OC)[C@H](C)O[C@@H](ONCc2ccc(-c3ncn(-c4ccc(OC(F)(F)C(F)(F)F)cc4)n3)cc2)[C@@H]1OC` [Compound 1, O-((2S,3R,4R,5S,6S)-4-ethoxy-3,5-dimethoxy-6-methyl-tetrahydropyran-2-yl)-N-{4-[1-(4-pentafluoroethyloxy-phenyl)-1H-[1,2,4]triazol-3-yl]-benzyl}-hydroxylamine]: the “% Mortality CEW 50 μg/cm2” value with CEW (Helicoverpa zea) is “A (50-100)”. In addition, the “% Mortality GPA 200 ppm” value in the series on GPA (Myzus persicae) is “B (More than 0-Less than 80)”. In addition, in the series with BAW (Spodoptera exigua), the “% Mortality BAW 50 μg/cm2” value is recorded as “A (50-100)”.
Regarding `CO[C@@H]1[C@@H](OC)[C@H](C)O[C@@H](ON(Cc2ccc(-c3ncn(-c4ccc(OC(F)(F)F)cc4)n3)cc2)C(C)=O)[C@@H]1OC` [Compound 6, N-{4-[1-(4-trifluoromethoxyphenyl)-1H-[1,2,4]triazol-3-yl]-benzyl}-N-((2S,3R,4R,5S,6S)-3,4,5-trimethoxy-6-methyl-tetrahydropyran-2-yloxy)-acetamide], the mortality at 50 µg/cm2 with CEW (Helicoverpa zea) and in the series on BAW (Spodoptera exigua) was 50 to 100% in each case. The mortality at 200 ppm in the series on GPA (Myzus persicae) is 0 to 80%.
Turning to `CCO[C@@H]1[C@@H](OC)[C@H](C)O[C@@H](ONCc2ccc(-c3ncn(-c4ccc(OC(F)(F)C(F)(F)F)cc4)n3)cc2)[C@@H]1OC` [Compound 5, O-((2S,3R,4R,5S,6S)-4-Ethoxy-3,5-dimethoxy-6-methyl-tetrahydropyran-2-yl)-N-{4-[1-(4-pentafluoroethyloxy-phenyl)-1H-[1,2,4]triazol-3-yl]-benzyl}-hydroxylamine hydrochloride], the mortality at 50 µg/cm2 with CEW (Helicoverpa zea) and in the series on BAW (Spodoptera exigua) was 50 to 100% throughout. In the series with GPA (Myzus persicae), the mortality at 200 ppm is 0%.
Regarding `COC(=O)CC(=O)N(Cc1ccc(-c2ncn(-c3ccc(OC(F)(F)F)cc3)n2)cc1)O[C@@H]1O[C@@H](C)[C@H](OC)[C@@H](OC)[C@H]1OC` [Compound 9, N-{4-[1-(4-trifluoromethoxyphenyl)-1H-[1,2,4]triazol-3-yl]-benzyl}-N-((2S,3R,4R,5S,6S)-3,4,5-trimethoxy-6-methyl-tetrahydropyran-2-yloxy)-malonamic acid methyl ester], the mortality at 50 µg/cm2 in the series on CEW (Helicoverpa zea) and in the series with BAW (Spodoptera exigua) was 50 to 100% each time. Further, the mortality at 200 ppm with GPA (Myzus persicae) was 0 to 80%.
As for `CO[C@@H]1[C@@H](O)[C@H](C)O[C@@H](ONCc2ccc(-c3ncn(-c4ccc(OC(F)(F)C(F)(F)F)cc4)n3)cc2)[C@@H]1OC` [Compound 2, (2S,3S,4R,5R,6S)-4,5-Dimethoxy-2-methyl-6-(N-{4-[1-(4-pentafluoroethyloxy-phenyl)-1H-[1,2,4]triazo1-3-yl]-benzyl}aminooxy)-tetrahydroyran-3-ol], the mortality at 50 µg/cm2 in the series on CEW (Helicoverpa zea) and in the series on BAW (Spodoptera exigua) was 50 to 100% throughout. Also, in the series with GPA (Myzus persicae), the mortality at 200 ppm fell in the range of 0 to 80%.
Regarding `CO[C@@H]1[C@@H](OC)[C@H](C)O[C@@H](ON(C)Cc2ccc(-c3ncn(-c4ccc(OC(F)(F)F)cc4)n3)cc2)[C@@H]1OC` [Compound 7, N-Methyl-N-{4-[1-(4-trifluoromethoxyphenyl)-1H-[1,2,4]triazol-3-yl]-benzyl}-O-((2S,3R,4R,5S6S)-3,4,5-trimethoxy-6-methyl-tetrahydro-pyran-2-yl)-hydroxylamine], the mortality at 50 µg/cm2 in the series on CEW (Helicoverpa zea) and with BAW (Spodoptera exigua) was 50 to 100% throughout. In the series on GPA (Myzus persicae), this compound registered a mortality at 200 ppm of 0%.
`CO[C@@H]1[C@@H](OC)[C@H](C)O[C@@H](ON(Cc2ccc(-c3ncn(-c4ccc(OC(F)(F)F)cc4)n3)cc2)C(=O)CCC(=O)O)[C@@H]1OC` [Compound 8, N-{4-[1-(4-trifluoromethoxyphenyl)-1H-[1,2,4]triazol-3-yl]-benzyl}-N-((2S,3R,4R,5S,6S)-3,4,5-trimethoxy-6-methyl-tetrahydropyran-2-yloxy)-succinamic acid]: the mortality at 50 µg/cm2 with CEW (Helicoverpa zea) and in the series on BAW (Spodoptera exigua) was 0% throughout. In the series with GPA (Myzus persicae), this compound displayed a mortality at 200 ppm of 0%.
`CO[C@@H]1[C@@H](OC)[C@H](C)O[C@@H](ONCc2ccc(-c3ncn(-c4ccc(OC(F)(F)F)cc4)n3)cc2)[C@@H]1OC.Cl` [Compound 4, N-{4-[1-(4-trifluoromethoxyphenyl)-1H-[1,2,4]triazol-3-yl]-benzyl}-O-((2S,3R,4R,5S,6S)-3,4,5-trimethoxy-6-methyl-tetrahydropyran-2-yl)-hydroxylamine hydrochloride]: in the series with CEW (Helicoverpa zea), the “% Mortality CEW 50 μg/cm2” value is on record as “B (More than 0-Less than 50)”. The mortality at 50 µg/cm2 with BAW (Spodoptera exigua) lay in the range of 50 to 100%.
